Assay results reported in ChEMBL document CHEMBL4340578, “11-Aminostrychnine and N-(Strychnine-11-yl)propionamide: Synthesis, Configuration, and Pharmacological Evaluation at Glycine Receptors” (J Nat Prod, 2019).

How the values were obtained:
[1] = target: T1, Glycine receptor (alpha-1/beta) (Homo sapiens, UniProt P23415+P48167); experiment: Antagonist activity at human glycine receptor subunit alpha-1beta expressed in human tsA201 cells assessed as reduction in glycine-induced response by fluorescence-based FLIPR membrane potential blue assay; format: cell-based
T1 sequence (P48167 whole entry, one chain of several): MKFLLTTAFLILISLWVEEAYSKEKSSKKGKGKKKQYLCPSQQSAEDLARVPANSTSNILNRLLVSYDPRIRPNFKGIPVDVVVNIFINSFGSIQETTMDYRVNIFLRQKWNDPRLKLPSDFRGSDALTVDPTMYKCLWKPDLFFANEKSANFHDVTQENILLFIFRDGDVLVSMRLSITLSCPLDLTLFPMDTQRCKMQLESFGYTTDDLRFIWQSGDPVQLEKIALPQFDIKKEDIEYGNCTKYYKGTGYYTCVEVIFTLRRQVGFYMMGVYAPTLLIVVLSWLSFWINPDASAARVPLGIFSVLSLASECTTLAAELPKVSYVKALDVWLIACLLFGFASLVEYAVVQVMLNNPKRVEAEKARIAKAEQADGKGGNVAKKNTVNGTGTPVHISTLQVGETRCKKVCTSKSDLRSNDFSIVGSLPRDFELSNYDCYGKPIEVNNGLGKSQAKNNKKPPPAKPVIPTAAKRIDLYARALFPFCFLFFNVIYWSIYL

[2] = target: T2, Glycine receptor subunit alpha-1 (Homo sapiens, UniProt P23415); experiment: Displacement of [3H]strychnine from human glycine receptor subunit alpha-1 expressed in HEK293 cell membranes
T2 sequence (P23415 whole entry): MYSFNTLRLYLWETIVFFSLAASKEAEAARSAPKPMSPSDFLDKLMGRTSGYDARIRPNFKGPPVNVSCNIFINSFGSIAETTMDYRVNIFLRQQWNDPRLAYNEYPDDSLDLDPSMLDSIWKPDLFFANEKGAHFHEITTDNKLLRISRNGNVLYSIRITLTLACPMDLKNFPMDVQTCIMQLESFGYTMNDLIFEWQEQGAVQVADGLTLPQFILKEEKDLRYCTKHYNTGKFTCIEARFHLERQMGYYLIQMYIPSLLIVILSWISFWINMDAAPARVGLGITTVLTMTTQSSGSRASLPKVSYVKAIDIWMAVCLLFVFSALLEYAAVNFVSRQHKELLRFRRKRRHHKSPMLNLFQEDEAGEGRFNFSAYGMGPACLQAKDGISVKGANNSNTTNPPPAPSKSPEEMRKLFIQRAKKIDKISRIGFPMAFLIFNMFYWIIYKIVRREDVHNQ

[3] = target: T2, Glycine receptor subunit alpha-1; experiment: Antagonist activity at human glycine receptor subunit alpha-1 expressed in human tsA201 cells assessed as reduction in glycine-induced response by fluorescence-based FLIPR membrane potential blue assay; format: cell-based
[4] = target: T2, Glycine receptor subunit alpha-1; experiment: Antagonist activity at human glycine receptor subunit alpha-1 expressed in HEK293 cells assessed as reduction in glycine-induced whole cell currents by patch-clamp technique; format: cell-based
[5] = target: T1, Glycine receptor (alpha-1/beta); experiment: Antagonist activity at human glycine receptor subunit alpha-1beta expressed in HEK293 cells assessed as reduction in glycine-induced whole cell currents by patch-clamp technique; format: cell-based

SMILES: N[C@@H]1C(=O)N2c3ccccc3[C@@]34CCN5CC6=CCO[C@@H]1[C@@H]([C@H]23)[C@H]6C[C@H]54
- IC50 [1]: 7700 nM
- Ki [2]: 741 nM
- IC50 [3]: 1000 nM
- IC50 [4]: 194 nM

SMILES: CCC(=O)N[C@@H]1C(=O)N2c3ccccc3[C@@]34CCN5CC6=CCO[C@@H]1[C@@H]([C@H]23)[C@H]6C[C@H]54
- IC50 [5]: 147 nM
- IC50 [1]: 2200 nM
- Ki [2]: 91 nM
- IC50 [3]: 710 nM
- IC50 [4]: 173 nM

SMILES: O=C1C[C@@H]2OCC=C3CN4CC[C@]56c7ccccc7N1[C@H]5[C@H]2[C@H]3C[C@H]46 [STRYCHNINE]
- IC50 [1]: 510 nM
- Ki [2]: 123 nM
- IC50 [3]: 150 nM
